Laboratory results reported in paper PMC6562610, “Inhibition of Hedgehog Signaling in Fibroblasts, Pancreatic, and Lung Tumor Cells by Oxy186, an Oxysterol Analogue with Drug-Like Properties” (Cells, 2019).
“Also recorded” adds a separate entry of the source.

Tests used:
[1] = Metabolic stability in mouse liver microsomes; type: in vitro ADME
[2] = system: Smo mediated activation of Hh signaling in NIH3T3 cells; test: Inhibition of Hh signaling from allosteric activation of Smo by Oxy133, Q-RT-PCR; type: cell-based, mouse; conditions: 72 h
Procedure: Total RNA was extracted with the RNeasy Plus Mini Kit from Qiagen, according to the manufacturer’s instructions. One microgram of RNA was reverse-transcribed using an iScript Reverse Transcription Supermix from Bio-Rad, to make single-stranded cDNA. The cDNAs were then mixed with Qi SYBR Green Supermix (Bio-Rad, Hercules, CA, USA) for quantitative RT-PCR assay using a Bio-Rad I-cycler IQ quantitative thermocycler. All PCR samples were prepared in triplicate wells in a 96-well plate. After 40 cycles of PCR, melt curves were examined in order to ensure primer specificity. Fold changes in gene expression were calculated using the ΔΔCt method. Primers used for mouse were as follows: Oaz1 (5’-CCACTGCTTCGCCAGAGAG-3’) and (5’-CCCGGACCCAGGTTACTA-3’), Gli1 (5’-[…]-3’ and 5’-[…]-3’), Ptch1 (5’-CCATCGGCGACAAGAACC-3’ and 5’-[…]-3’), Hip (5’-[…]-3’ and 5’-[…]-3’), and Abca1 (5’-[…]-3’ and 5’-[…]-3’). […]
Figure 3 Inhibition of ligand-induced Hedgehog signaling. […] After 72 h, RNA was extracted and analyzed by Q-RT-PCR for the expression of Hh target genes Gli1 (a,b,d) and Ptch1 (c), and normalized to Oaz1 expression. […] Luciferase activity was measured and normalized to the Renilla luciferase activity. […]

[3] = system: PANC-1 cells; test: Cell counting assay, PANC-1; type: cell-based, human; conditions: 96 h
Procedure: (§1) A549 and H2030 cells cultured in 12-well plates at 20% confluence were treated with Oxy186, HPI-1, Gant61, or GDC0449 for 96 hours and then trypsinized and suspended in fresh medium. An aliquot of cell suspension was applied to a hemocytometer and counted under a microscope.
(§2) Figure 6 Inhibition of human pancreatic and lung cancer cell proliferation by Oxy186. (a,c) A549, (b) and (d) H2030, (e) PANC-1, and (f) CAPAN-1 cells were treated with the compounds as indicated in RPMI 1640 (a–d) or DMEM (e,f) containing 5% FBS for 96 h and then were trypsinized and counted. Data from a representative experiment are reported as the mean of triplicate determinations ± SD (* p < 0.05 vs. Control; ** p < 0.01 vs. control).

[4] = system: CAPAN-1 cells; test: Cell counting assay, CAPAN-1; type: cell-based, human; conditions: 96 h
Procedure: as §1, §2

[5] = system: A549 cells; test: Cell counting assay, A549; type: cell-based, human; conditions: 96 h
Procedure: as §1, §2

[6] = system: endogenous Gli activity in Sufu-/- cells; test: Gli responsive luciferase reporter in Sufu-/- cells; type: cell-based, mouse; conditions: 10 µM, 72 h
Procedure: NIH3T3-E1 and Sufu^−/− cells cultured in 24-well plates at 90% confluence were transiently transfected with 0.1 µg of Gli response-element reporter (pGL3b-8xGli-Luciferase) plasmid, and 10 ng of pTK-Renilla-Luciferase plasmid with or without co-transfection with 10 ng of Gli1 overexpression vector, pSRα-Gli1, as previously described using Lipofectamine LTX Plus transfection reagent (Invitrogen). Twenty-four h after transfection, cells were treated with test agents for 72 h. Then the firefly and Renilla luciferase activities were measured using a dual luciferase kit (Promega, Madison, WI, USA) and a GloMax-96 Microplate Luminometer. The firefly luciferase activities were normalized to the Renilla luciferase activities. Data are reported as the mean of triplicate determinations ± SD.
Figure 5 Oxy186 acts downstream of Smo. (a) Sufu^−/− mouse embryonic fibroblast (MEF) cells were treated with DMEM containing 10% FBS in the presence or absence of Oxy186 (10 µM). After 72 h, RNA was extracted and analyzed by Q-RT-PCR for the expression of Hh target genes Gli1, Ptch1, and Hip, normalized to Oaz1 expression. […] Luciferase activity was measured and normalized to the Renilla luciferase activity. […]

SMILES: C[C@]12CC[C@H](O)C[C@@H]1CC[C@@H]1[C@@H]2CC[C@@]2(C)[C@H]1CC[C@@H]2[C@](C)(O)CCc1ccc(F)cc1 [Oxy186, (3S,5S,8R,9S,10S,13S,14S,17S)-17-((R)-4-(4-fluorophenyl)-2-hydroxybutan-2-yl)-10,13-dimethylhexadecahydro-1H-cyclopenta[a]phenanthren-3-ol]
- remaining at 1 h ([1]; 60 min, read-out: MLM, % Remaining after 60 min): 50%
- half-life ([1]; read-out: MLM, Half-Life): 1 h
- Suppression of Hh signaling from allosteric activation of Smo by Oxy133 [2]: significantly suppressed
- Anti-proliferation effect [3]: significant anti-proliferation effects
- Anti-proliferation effect [4]: significant anti-proliferation effects; also recorded: moderate anti-proliferative effects
- Inhibition of cell proliferation ([5]; 10 µM): significantly inhibited
- IC50 ([5]; Homo sapiens, read-out: IC50 for inhibition of cell proliferation): 5 µM
- Inhibition of Gli responsive luciferase reporter activity (endogenous Gli) [6]: significantly inhibited
